From PubChem BioAssay (NCI) come the findings set out here.

Holding throughout (test): NCI tumour cell line growth inhibition, 48 h
Assay [1] relates to MDA-N.
Assay [2] relates to KM20L2 colon.
For assay [3], the system named is DLD-1 colon.
Assay [4] concerns HOP-18 NSCLC.
Assay [5] relates to XF 498 CNS.
Assay [6] concerns M19-MEL melanoma.
Assay [7] has as its system DMS 114 small cell lung.
Assay [8] deals with DMS 273 small cell lung.
Assay [9] deals with RXF-631 renal.
Assay [10] has as its system P388/ADR leukemia.
For assay [11], the system named is SN12K1 renal.
Assay [12] relates to P388 leukemia.

Several values for one entry are separate records, joined by “and”; a condition that tells them apart may be missing. Equal entries are not always repeated.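 These data come from cells grown in 96-well plates and exposed to compound for 48 hours at five concentrations. GI50 = concentration required for 50% inhibition of growth. TGI is the concentration that stops growth completely.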

For the compound `NNC(=O)C(O)C(O)C(O)CO` (configuration not stated), the TGI in [1] is > 100 µM.

On to `CC[C@@]1(O)C(=O)OCc2c1cc1n(c2=O)Cc2cc3c([N+](=O)[O-])c(O)ccc3nc2-1`, for which the GI50 was 1.97 µM in assay [2]; 9.41 µM in assay [3]; 0.758 µM in assay [4]; 1.09 µM in assay [5]; 0.655 µM in assay [6]; 0.0601 µM in assay [7]. The GI50 in assay [8] was 0.0605 µM. The TGI was 38.4 µM in [2]; > 100 µM in assay [3]; > 100 µM in [4]; 9.25 µM in [5]; 11.9 µM in assay [6]; 1.2 µM in assay [7]. For the same compound, in assay [8], the TGI stood at 2.02 µM.

On to `CC1=CC[C@@H]2[C@@H](CC[C@@]2(C)O)C(C)(C)[C@H]1CC[C@@H]1[C@@]2(C)CC[C@@H](O)C(C)(C)O[C@@H]2CC[C@]1(C)O`, for which, in assay [1], the TGI was found to be 53.2 µM.

In assay [1], `CCC1CCC2C3CC=C4CC(OC(C)=O)C(N)CC4(C)C3CCC12C` (configuration not stated) displayed a TGI of 6.92 µM.

As to `Cc1cc(Cl)ccc1NC(=O)C1C(=O)C(=O)N(c2ccc(Cl)cc2C)C1=O` (configuration not stated), the TGI in assay [9] was > 100 µM; in assay [2], > 100 µM; in assay [3], > 100 µM; in assay [6], > 100 µM; in assay [7], 68.1 µM; in assay [8] it was > 100 µM.

On to `[O-]c1ccccc1[C-]=Nc1ccccc1O.[O-]c1ccccc1[C-]=Nc1ccccc1O.[O]=[U]=[O]`, for which the GI50 in assay [2] is 0.856 µM; in assay [3], 2.23 µM; in [5] it was 20 µM; in [6], 12.3 µM; in assay [7] it was 2.4 µM; in assay [8], 13.7 µM. The TGI in [2] is > 100 µM; in assay [3], 41 µM; in assay [5], 42 µM; in assay [6] it was 48.6 µM; in [7] it was 23.2 µM; in [8], 59.5 µM.

For `O=c1/c(=C/c2ccccc2O)sc2nc3ccccc3n12`, the TGI was > 100 µM in assay [9]; > 100 µM in assay [2]; > 100 µM in assay [3]; > 100 µM in assay [6]; 47.5 µM in assay [7]; > 100 µM in assay [8].

In the case of `COC(=O)c1ccc(CS(=O)(=O)c2ccccc2)cc1`, the TGI in assay [9], in [2], in assay [3], in assay [4], in [5] and in [6] was > 100 µM in each case. The TGI in assay [7] and in assay [8] was > 100 µM each time.

For the compound `CCCCCCCCCCCCCCCCSS(C)(=O)=O`, the TGI was 35.6 µM in assay [9]; > 66.1 µM in assay [2]; 37.7 µM in assay [3]; > 100 µM in [4]; > 100 µM in [1]; 16.9 µM in assay [5]. Besides, the TGI in [8] came to 42.7 µM.

For `CC1(OCc2ccccc2)C(=O)N2C1N(C(=O)OCc1ccccc1)CC2(C)C` (configuration not stated), the TGI was > 100 µM in assay [2]; > 100 µM in [3]; 75 µM in assay [5]; > 100 µM in [6]; > 100 µM in assay [7]; > 100 µM in [8].

On to `CC(=O)CC(=O)ON(C)C(C)=O`, for which the TGI in assay [2], in assay [3], in assay [5], in assay [6], in assay [7] and in [8] was > 100 µM in each case.

With `O=C1C2c3[nH]c4ccccc4c3C3CCC(c4ccccc4)CC3C2C(=O)N1c1ccccc1` (configuration not stated), the TGI in assay [3], in assay [4], in [5], in assay [6], in assay [7] and in assay [8] was > 100 µM in each case.

Regarding `Clc1cc(Cl)cc(C2SCc3nc4ccccc4n32)c1` (configuration not stated), the TGI in assay [9] was found to be 32.9 µM; in assay [4], 67.8 µM; in assay [7], 44.7 µM; in assay [8] it was 22.4 µM.

In assay [1], `COC1=CC(=O)c2c(O)c3c(c(O)c2C1=O)OC1(Oc2c(cc4cc(C)oc(=O)c4c2O)CC1O)C3O` (configuration not stated) yielded a TGI of 42.9 µM.

`CCCCN1C(=O)C2c3[nH]c4ccccc4c3C3CCCCC3C2C1=O` (mixture of isomers): the TGI in assay [9] was 36.4 µM; in assay [2], > 100 µM; in [3] it was > 100 µM; in assay [5] it was 27.8 µM; in assay [6], > 100 µM; in assay [7], 44.6 µM. Further, the TGI in assay [8] is 23.5 µM.

For the compound `CC12CCC(=O)N1c1cc([N+](=O)[O-])ccc1N2` (configuration not stated), the TGI in assay [9], in [2], in [3], in assay [4], in [5] and in [6] was > 100 µM each time. Besides, the TGI in assay [7] and in [8] was > 100 µM each time.

For the compound `CN(C(=N)c1ccccc1)c1ccccc1`, the TGI in assay [2], in [3], in [4], in [6] and in assay [8] was > 100 µM each time.

For `Cc1ccc2oc(=O)cc(CC(=O)O)c2c1`, the TGI is > 100 µM in assay [9]; > 100 µM in assay [2]; > 100 µM in assay [3]; > 100 µM in assay [4]; 93.1 µM in assay [5]; > 100 µM in assay [6]. For the same compound, the TGI in [8] is > 100 µM.

As to `CS(=O)(=O)OCCCCOS(C)(=O)=O`, the TGI is 246 µM in assay [10]; > 235 µM in assay [2]; > 236 µM in assay [3]; > 200 µM in [4]; 224 µM in assay [11]; 250 µM and > 1000 µM in [1]. Further, the TGI in assay [6] was 230 µM; in assay [12], 250 µM; in [7] it was 250 µM; in assay [8] it was 245 µM. The GI50 in assay [1] is > 1000 µM.
